# How the values were obtained:
# [1] = test system: extra cellular serotonin levels (ventral hippocampus); experiment: 3-day microdialysis in rats (minipumps); assay type: in vivo, rat; settings: 4 mg/kg vs 10 mg/kg (S)-citalopram, oxalate salts, FIG. 4
# Procedure: (§1) Male Sprague-Dawley rats, initially weighing 275-300 g, are used
# (§2) Rats are anaesthetised with hypnorm/dormicum (2 ml/kg) and intracerebral guide cannulas (CMA/12) are stereotaxically implanted into the hippocampus, aiming to position the dialysis probe tip in the ventral hippocampus (co-ordinates: 5.6 mm posterior to bregma, lateral −5.0 mm, 7.0 mm ventral to dura or in the frontal cortex (co-ordinates: 3.2 mm anterior to bregma; lateral, 0.8 mm; 4.0 mm ventral to dura). Anchor screws and acrylic cement are used for fixation of the guide cannulas. The body temperature of the animals is monitored by rectal probe and maintained at 37° C. The rats are allowed to recover from surgery for 2 days, housed singly in cages. On the day of the experiment, a microdialysis probe (CMA/12, 0.5 mm diameter, 3 mm length) is inserted through the guide cannula.
# (§3) The probes are connected via a dual channel swivel to a microinjection pump. Perfusion of the microdialysis probe with filtered Ringer solution ([…], 3 mM KCl, 1 mM MgCl2, 1.2 mM CaCl2) is begun shortly before insertion of the probe into the brain and continued for the duration of the experiment at a constant flow rate of 1 μL/min. After 180 min of stabilisation, the experiments are initiated. Dialysates were collected every 20 min. […]
# (§4) Concentration of 5-HT in the dialysates is analysed by means of HPLC with electrochemical detection. […]
# hSERT [2] = biological target: T1, hSERT (Homo sapiens, UniProt P31645); experiment: [3H]-(S)-citalopram dissociation from SERT (allosteric site binding)
# T1 construct: expressed in transfected cells; host or cells: HEK293 cells expressing hSERT; membranes
# T1 sequence (P31645 whole entry): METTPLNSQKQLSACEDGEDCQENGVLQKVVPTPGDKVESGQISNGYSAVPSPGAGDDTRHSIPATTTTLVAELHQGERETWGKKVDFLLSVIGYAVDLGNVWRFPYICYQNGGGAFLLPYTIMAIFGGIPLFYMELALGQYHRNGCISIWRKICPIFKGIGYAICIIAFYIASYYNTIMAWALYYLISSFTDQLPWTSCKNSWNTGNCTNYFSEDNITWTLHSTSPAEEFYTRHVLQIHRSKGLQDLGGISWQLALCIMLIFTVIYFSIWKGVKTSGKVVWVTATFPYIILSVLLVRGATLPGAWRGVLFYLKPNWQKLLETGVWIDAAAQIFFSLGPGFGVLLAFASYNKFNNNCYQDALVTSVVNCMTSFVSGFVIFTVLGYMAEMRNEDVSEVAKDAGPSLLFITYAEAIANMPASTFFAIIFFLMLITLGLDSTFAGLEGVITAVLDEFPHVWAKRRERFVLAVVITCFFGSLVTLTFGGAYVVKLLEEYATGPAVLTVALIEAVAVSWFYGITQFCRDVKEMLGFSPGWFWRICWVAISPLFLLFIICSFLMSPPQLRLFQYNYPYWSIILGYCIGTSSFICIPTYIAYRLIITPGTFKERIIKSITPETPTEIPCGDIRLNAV
# Procedure: The assay procedure was modified based on the methods described in Pharmacol. Toxicol., 80, 197-201, 1997 and J.Neurochem., 92, 21-28, 2005.
# PeakRapid 293 cells (Edge Biosystems, Gaithersburg, Md.) were cultured in Dulbecco's Modified Eagle Medium (DMEM) supplemented with 10% bovine calf serum, 4 mM L-glutamine, 100 units/ml penicillin and 100 μg/ml streptomycin) at 37° C., 5% CO2. Human SERT cDNA in a mammalian expression vector was transiently transfected into PeakRapid 293 cells using 10 μg total DNA in 150 cm2 flasks by lipofectamine method (Invitrogen, Carlsbad, Calif.). Two days after transfection, membranes were harvested.
# Binding assays were conducted in buffer containing 50 mM Tris, 120 mM NaCl, and 5 mM KCl, PH 7.4. Prior to dissociation binding, [3H]-(S)-citalopram (40 nM) was incubated with hSERT membranes (5 ug/10 ul) for 2 hours at room temperature. The reaction mixture was dispensed into 96 well format minitubes at 10 ul/well and kept on ice. […] Bound ligand was counted using a Trilux counter.
# Dissociation binding data were analyzed using GraphPad Prism 4 (GraphPad, San Diego, Calif.) and Xlfit 4 (IDBS, Guildford, Surrey, UK). […] The ratios (k/k0) of the rate (k) in the presence compounds over the rate (k0) in the absence of compounds were calculated for each compound concentration. […]
# hSERT [3] = biological target: T1, hSERT; assay type: binding; settings: increasing concentrations of (R)-citalopram; FIG. 2
# Procedure: Association rates are determined on membrane preparations from HEK293 cells transiently expressing hSERT. The kinetics of the association of the [^3H]compound- SERT complex is determined after incubation of aliquots consisting of 10 μg membranes from HEK293 cells transiently expressing hSERT and 290 μL [^3H]test compound pre incubated until equilibrium. Association is initiated by addition of radioligand in the absence or presence of R-citalopram (0-300 μM). Bound [^3H]test compound is measured after 0, 2, 5, 10, 15, 20, 30, 50, 70 and 90 minutes.
# HEK293 cells expressing hSERT are harvested and 10 μg HEK293-hSERT membrane is placed in each well in a 96 well microtiter plate. […] Concentration of test-compounds is varied from the nM to the μM range. Incubation-time is 0, 2, 5, 10, 15, 20, 30, 50, 70 and 90 minutes on ice or at room temperature (22° C.). Mebranes are harvested in ice-cold ELGA-water onto a GF/C fiberglass filter (Presoaked with 0.5% PEI for 30 min). Filters are rinsed twice with 2×0.5 ml ice-cold ELGA-water. The filters are dried and added 40 L of scintillation fluid.
# [4] = test system: extracellular serotonin in the ventral hippocampus; experiment: Microdialysis in rats, single administration ± (R)-citalopram; assay type: in vivo, rat; settings: FIG. 3
# Procedure: as §1, §2, §3, §4
structure (smiles),measurement,setting,value
CNCc1ccccc1Sc1c[nH]c2cc(F)ccc12 [[2-(6-Fluoro-1H-indol-3-ylsulfanyl)-benzyl]-methyl-amine],increase in serotonin levels compared with (S)-citalopram,[1],faster and more pronounced increase in the serotonin levels than (S)-citalopram
same,slowing of 3H (S)-citalopram dissociation rate (fold modulation),hSERT [2]; at 200 μM,5.4 fold
same,IC50,"hSERT [2]; hSERT membranes, [3H]-(S)-citalopram 40 nM, room temperature, N=2, read-out: IC50 of binding to an allosteric site (from k/k0 of 3H-(S)-citalopram dissociation)",26 µM
same,effect of (R)-citalopram on association of the [3H] ligand to SERT,hSERT [3],almost unaffected by (R)-citalopram
same,extracellular serotonin in the ventral hippocampus,[4],significant increase
same,effect of concomitant (R)-citalopram on the increase in extracellular serotonin,[4]; ventral hippocampus,not affected by concomitant administration of (R)-citalopram

# Reference: patent US20090054510A1, “METHOD FOR IDENTIFYING COMPOUNDS FOR THE TREATMENT OF DEPRESSION” (H. LUNDBECK A/S, priority 2006, published 2009)
